Activity calls are given as the source filed them. The calls are words filed in the database; no cut-off is given here.
How the values were obtained:
[1] = molecular target: Botulinum neurotoxin type A (Clostridium botulinum, UniProt P0DPI0); test: Inhibition of Clostridium botulinum BoNT/A light chain assessed as inhibition of SNAP-25 (187-203) substrate hydrolysis by RP-HPLC-based assay in presence of excess Zn(II)
[2] = molecular target: Botulinum neurotoxin type A (Clostridium botulinum) (UniProt P0DPI0); test: Competitive inhibition of Clostridium botulinum BoNT/A light chain assessed as inhibition of SNAP-25 (187-203) substrate hydrolysis by Dixon plot analysis
Chain of Botulinum neurotoxin type A (Clostridium botulinum) (P0DPI0 2-448 limits assumed): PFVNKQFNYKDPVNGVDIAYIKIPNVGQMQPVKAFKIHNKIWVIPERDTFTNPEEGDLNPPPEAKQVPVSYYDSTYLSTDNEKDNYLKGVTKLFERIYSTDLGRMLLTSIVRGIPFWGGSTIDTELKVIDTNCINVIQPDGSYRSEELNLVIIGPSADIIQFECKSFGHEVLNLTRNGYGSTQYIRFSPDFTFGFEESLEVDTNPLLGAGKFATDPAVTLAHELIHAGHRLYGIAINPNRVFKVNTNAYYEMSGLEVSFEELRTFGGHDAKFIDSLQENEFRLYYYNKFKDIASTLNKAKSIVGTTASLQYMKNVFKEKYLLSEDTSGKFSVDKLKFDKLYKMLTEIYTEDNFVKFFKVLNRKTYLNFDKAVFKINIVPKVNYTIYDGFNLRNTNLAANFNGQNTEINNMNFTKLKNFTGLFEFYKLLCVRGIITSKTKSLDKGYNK

Chain of Botulinum neurotoxin type A (P0DPI0 2-448 limits assumed): as above

Row | SMILES | Ki [1] [nM] | inhibition [2]
1 | O=C(NCCCCNc1ccnc2cc(Cl)ccc12)c1cc(NC(=O)c2ccc(C(=O)Nc3cc(C(=O)NCCCCNc4ccnc5cc(Cl)ccc45)cc(C4=NCCN4)c3)cc2)cc(C2=NCCN2)c1 | 900 | Active
2 | O=C(NCCNc1ccnc2cc(Cl)ccc12)c1cc(NC(=O)c2ccc(C(=O)Nc3cc(C(=O)NCCNc4ccnc5cc(Cl)ccc45)cc(C4=NCCN4)c3)cc2)cc(C2=NCCN2)c1 | 2120 | Active
3 | O=C(NCCCNc1ccnc2cc(Cl)ccc12)c1cc(NC(=O)c2ccc(C(=O)Nc3cc(C(=O)NCCCNc4ccnc5cc(Cl)ccc45)cc(C4=NCCN4)c3)cc2)cc(C2=NCCN2)c1 | 572 | Active
4 | CCCCNC(=O)c1cc(NC(=O)c2ccc(C(=O)Nc3cc(C(=O)NCCCC)cc(C4=NCCN4)c3)cc2)cc(C2=NCCN2)c1 | 8520 | –

From ChEMBL document CHEMBL2034839, “Pharmacophore Refinement Guides the Rational Design of Nanomolar-Range Inhibitors of the Botulinum Neurotoxin Serotype A Metalloprotease” (ACS Med Chem Lett, 2010)
